The test system of test [1] is mouse melanoma cell B16BL6. Description: Gene delivery efficiency (luciferase gene) with varied amounts of DNA, B16BL6 cells. The format is cell-based. To be noted: DNA:liposome 1:12 (w/w), luciferase gene 0.5, 1, 2 and 5 μg tested, FIGS. 2a-2c. On the procedure:
Mouse melanoma cells […] were inoculated in MEM(minimum essential medium, Gibco-BRL, USA) containing 5% (v/v) fetal bovine serum, streptomycin and penicillin, and incubated in an incubator(NAPCO, USA) under an environment of 5% (v/v) CO2 at 37° C., which were aliquoted in 24-well plate to reach the cell density of 1×10^5 cell/well or 5×10^4 cell/well, and further incubated for 24 hrs to stabilize the cells.
(§1) For the evaluation of gene delivery efficiency of liposomes with varied amount of DNA, DNA-liposome complex was prepared by mixing DNA and liposome(1:12, w/w) in 500 μl of serum-free medium, while varying the amounts of luciferase gene as 0.5 μg, 1 μg, 2 μg and 5 μg. […] After incubation, media were discarded, cells were lysed by adding 100 μl of Luciferase cell culture lysis reagent(Promega, USA), and centrifuged at 14000 rpm for 10 sec. And then, 10 μl of supernatant was mixed with 20 μl of a substrate of luciferase, and luminescence was measured by using Luminometer(Mini lumat LB9506, EG&G BERTHOLD). Proteins in each well were quantitated by DC protein assay(Bio-rad, USA)(see: FIGS. 1a-1c and 2a-2c).

Test [2] has as its system 293 human kidney cell line. Description: Gene delivery efficiency (luciferase gene) with varied amounts of DNA, 293 cells. The format is cell-based. The note with it: DNA:liposome 1:12 (w/w), luciferase gene 0.5, 1, 2 and 5 μg tested, FIGS. 1a-1c. On the procedure: as §1

Consider lysine-aspartate-tetradecanol [KD-DM], for which the “amount of DNA showing the highest gene delivery efficiency” value (from here on “amount”) in test [1] and in test [2] was 1 µg throughout. lysine-aspartate-hexadecanol [KD-DP]: the “amount” value in test [1] was found to be 0.5 µg; in test [2], 2 µg.

For the substance lysine-glutamate-tetradecanol [KE-DM], the “amount” value in test [2] amounted to 2 µg.

Source of the values: patent US20050112185A1, “Positively charged lipid and liposome with the lipid” (priority 2002, published 2005).
